Drawing on ChEMBL document CHEMBL3621145, “Synthesis of imidazothiadiazolebenzimidazole conjugates as mitochondrial apoptosis inducers” (Medchemcomm, 2014), this text covers IC50 for 18 molecules.

Common to all, as to type: functional, cell-based
The subject of one assay is ME-180. The experiment in a line: Anticancer activity against human ME180 cells by MTT assay.
The next assay deals with A549. The experiment in a line: Anticancer activity against human A549 cells by MTT assay. A general note: Tetrazolium dyes change colour on reduction, which living cells bring about.
The test system of another assay is A-375. The experiment in a line: Anticancer activity against human A375 cells by MTT assay.
In a further assay the test system is DU-145. Briefly: Anticancer activity against human DU145 cells by MTT assay.

The structures appear in SMILES notation. pIC50: −log10 of the molar value. Some results are limits rather than exact numbers.

Usually pIC50 stands for the IC50 on a negative log10 scale, so that one unit is a factor of ten. A higher pIC50 goes with a low IC50.

In the case of `COc1ccc(-c2nc3sc(C)nn3c2-c2nc3cc(Cl)ccc3[nH]2)cc1`, the pIC50 with ME-180 is 5.59; with A549 it was 5.10; with A-375 it was 5.37; in the assay with DU-145 it was 4.80.

As for `Cc1nn2c(-c3nc4cc(F)ccc4[nH]3)c(-c3ccccc3)nc2s1`, the pIC50 in the assay on ME-180 is 4.80; with A549, under 4.52; with A-375, 4.74; with DU-145, 4.77.

As to `Cc1nn2c(-c3nc4cc(Cl)c(F)cc4[nH]3)c(-c3ccc(F)cc3)nc2s1`, the pIC50 in the assay on ME-180 was 4.86; in the assay on A549, under 4.52; in the assay with A-375, 4.75; in the assay on DU-145, under 4.52.

As for `COc1ccc(-c2nc3sc(C)nn3c2-c2nc3c(C)c(C)ccc3[nH]2)cc1`, the pIC50 in the assay on ME-180 is 5.43; in the assay with A549, 4.79; in the assay with A-375, 5.24; in the assay with DU-145, 4.85.

With `Cc1nn2c(-c3nc4cc(Cl)ccc4[nH]3)c(-c3ccc(F)cc3)nc2s1`, the pIC50 is 5.72 with ME-180, 4.99 in the assay on A549, 5.32 in the assay on A-375 and 4.84 in the assay with DU-145.

Regarding `COc1ccc(-c2nc3sc(C)nn3c2-c2nc3cc(Cl)c(F)cc3[nH]2)cc1`, the pIC50 is 5.34 in the assay with ME-180, 4.75 in the assay with A549, 5.17 in the assay with A-375 and under 4.52 in the assay with DU-145.

As to `Cc1nn2c(-c3nc4ccccc4[nH]3)c(-c3ccccc3)nc2s1`, the pIC50 in the assay with ME-180 is 4.77; in the assay on A549 it was 4.78; with A-375, 4.70; in the assay on DU-145, under 4.52.

For `COc1ccc(-c2nc3sc(C)nn3c2-c2nc3cc(C)ccc3[nH]2)cc1`, the pIC50 was 5.06 in the assay on ME-180, 4.74 with A549, 4.96 in the assay with A-375 and 4.60 in the assay with DU-145.

Regarding `Cc1nn2c(-c3nc4cc(Cl)c(F)cc4[nH]3)c(-c3ccccc3)nc2s1`, the negative-log IC50 (pIC50) with ME-180 was 4.77; in the assay on A549, 4.79; with A-375, 4.68; with DU-145 it was under 4.52.

For `Cc1nn2c(-c3nc4cc(Cl)ccc4[nH]3)c(-c3ccccc3)nc2s1`, the pIC50 with ME-180 was 5.27; in the assay with A549, 4.77; in the assay on A-375, 5.11; with DU-145, 4.60.

`Cc1nn2c(-c3nc4cc(Cl)c(Cl)cc4[nH]3)c(-c3ccc(F)cc3)nc2s1`: the pIC50 in the assay on ME-180 is 5.00; with A549, under 4.52; with A-375 it was 4.85; in the assay with DU-145, under 4.52.

`Cc1ccc(-c2nc3sc(C)nn3c2-c2nc3c(C)c(C)ccc3[nH]2)cc1`: the pIC50 with ME-180 was 5.01; with A549, 4.99; in the assay on A-375, 4.94; in the assay on DU-145, 4.90.

Regarding `Cc1nn2c(-c3nc4ccccc4[nH]3)c(-c3ccc(F)cc3)nc2s1`, the pIC50 is 4.74 in the assay on ME-180, under 4.52 with A549, 4.65 in the assay with A-375 and under 4.52 in the assay with DU-145.

Consider `Cc1nn2c(-c3nc4cc(C)c(C)cc4[nH]3)c(-c3ccccc3)nc2s1`, for which the pIC50 with ME-180 was 4.70; in the assay with A549 it was under 4.52; with A-375 it was 4.65; in the assay on DU-145, 4.70.

As for `Cc1ccc2[nH]c(-c3c(-c4ccccc4)nc4sc(C)nn34)nc2c1`, the pIC50 in the assay on ME-180 is 4.80; in the assay with A549 it was 4.90; with A-375, 4.69; in the assay with DU-145, 4.84.

Consider `COC(=O)Nc1nc2cc(C(=O)c3cccs3)ccc2[nH]1` [NOCODAZOLE], for which the pIC50 is 5.77 in the assay on ME-180, 5.60 in the assay with A549, 6.70 in the assay with A-375 and 5.68 in the assay on DU-145.

As to `Cc1nn2c(-c3nc4c(C)c(C)ccc4[nH]3)c(-c3ccccc3)nc2s1`, the pIC50 in the assay on ME-180 was 4.80; in the assay with A549, 4.74; with A-375, 4.64; in the assay on DU-145 it was under 4.52.

On to `Cc1ccc(-c2nc3sc(C)nn3c2-c2nc3cc(Cl)ccc3[nH]2)cc1`, for which the pIC50 in the assay with ME-180 is 5.44; with A549 it was 5.36; in the assay on A-375 it was 5.30; with DU-145 it was 5.14.
